Data from patent US11130769B2 (Prelude Therapeutics Incorporated, priority 2018, dated 2021).
Where two headings read alike, the source gives them in different places.

Key:
H929 cells = assay: Cell viability assay (H929 10 FBS); format: cell-based; conditions: Homo sapiens, NCI-H929, 24 hours, read-out: H929_10FBS IC50
Method: Cell Viability Assay (H929 10 FBS)
Dispense 10 μL aliquot of prepared H929 cells (1:1 ratio of cells:Trypan Blue (#1450013, Bio-Rad)) onto cell counting slide (#145-0011, Bio-Rad) and obtain cell density and cell viability using cell counter (TC20, Bio-Rad). Remove appropriate volume of resuspended cells from culture flask to accommodate 4000 cells/well @ 10 μL/well. Transfer H929 cells to 50 mL conical (#430290, Corning). Spin down at 1000 rpm for 5 min using tabletop centrifuge (SPINCHRON 15, Beckman). Discard supernatant and resuspend cell pellet in modified RPMI 1640 (#10-040-CV, Corning) cell culture media containing 10% FBS (F2422-500 ML, Sigma), sodium pyruvate (100 mM) (#25-000-CL, Corning), HEPES buffer (1 M) (#25-060-CL, Corning) and glucose (200 g/L) (A24940-01, Gibco) to a cell density of 400,000 cells/mL. Dispense 10 μL of resuspended H929 cells per well in 384-well small volume TC treated plate (#784080, Greiner Bio-one) using standard cassette (#50950372, Thermo Scientific) on Multi-drop Combi (#5840310, Thermo Scientific) in laminar flow cabinet. Dispense compounds onto plates using digital liquid dispenser (D300E, Tecan). Incubate plates in humidified tissue culture incubator @ 37° C. for 24 hours. Add 10 μL of prepared CellTiTer-Glo® detection buffer (G7570, Promega) or ATPlite 1 Step detection reagent (#6016731, Perkin Elmer) to each well of 384-well plate using small tube cassette (#24073295, Thermo Scientific) on Combi multi drop, incubate @ RT for 30-60 min. Read plates with microplate reader (PheraStar, BMG Labtech) using 384 well luminescence mode.

MCL-1 = MCL-1 (Homo sapiens (Human), UniProt Q07820); assay: Cell free Mcl-1:Bim affinity assay (fluorescence polarization competition); format: binding; conditions: 15 nM MCL-1, 5 nM FITC-Bim, 1 hour at room temperature, read-out: BIM_Ki
Chain of MCL-1 (Q07820 whole entry): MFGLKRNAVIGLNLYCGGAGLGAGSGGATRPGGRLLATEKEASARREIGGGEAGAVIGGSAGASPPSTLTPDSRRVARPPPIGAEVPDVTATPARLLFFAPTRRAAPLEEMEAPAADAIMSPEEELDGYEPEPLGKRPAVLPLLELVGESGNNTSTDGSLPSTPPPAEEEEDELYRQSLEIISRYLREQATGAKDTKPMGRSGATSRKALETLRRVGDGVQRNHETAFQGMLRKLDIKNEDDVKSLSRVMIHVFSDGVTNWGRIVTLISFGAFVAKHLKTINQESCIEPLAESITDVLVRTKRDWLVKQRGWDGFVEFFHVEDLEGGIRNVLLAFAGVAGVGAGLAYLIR
Method: The binding affinity of each compound was measured via a fluorescence polarization competition assay, in which the compound competes for the same binding site with the ligand, and thus leads to a dose-dependent anisotropy reduction. The tracer ligand utilized was a fluorescein isothiocyanate labelled peptide (FITC-[…]) derived from Bim (GenScript).
The assay was carried out in black half-area 96-well NBS plate (Corning), containing 15 nM of MCL-1 (BPS Bioscience), 5 nM of FITC-Bim and 3-fold serial diluted test compounds in a total volume of 50 μL of assay buffer (20 mM HEPES, 50 mM NaCl, 0.002% Tween 20, 1 mM TCEP, and 1% DMSO). The reaction plate was incubated for 1 hour at room temperature. The change of anisotropy is measured with an Envision multimode plate reader (PerkinElmer) at emission wavelength 535 nm. Fluorescence polarization was calculated in mP unit and the percentage inhibition was calculated by % inhibition=100×(mPDMSO−mP)/(mPDMSO−mPPC), in which mPDMSO is the DMSO control, and mPpc is the positive control. IC50 values were determined from a 10-point dose response curve by fitting the percent inhibition against compound concentration using the GraphPad Prism software. The inhibition constant Ki was subsequently calculated according to the Nikolovska-Coleska's equation (Anal. Biochem., 2004, 332, 261),
[formula] • where [I]50 is the concentration of the free inhibitor at 50% inhibition, [L]50 is the concentration of the free labeled ligand at 50% inhibition, [P]0 is the concentration of the free protein at 0% inhibition, and Kd is the dissociation constant of the protein-ligand complex. See Table F. Caspase 3/7 Activity Assay

**Q.** For COC(=O)N(C)[C@H]1/C=C/COC(C)(C)C(=O)NS(=O)(=O)c2ccc3c(c2)N(C[C@@H]2CC[C@H]21)C[C@@]1(CCCc2cc(Cl)ccc21)CO3 [Example 254, Methyl N-methyl-N-[(3R,6R,7S,8E,22S)-6′-chloro-12,12-dimethyl-13,15,15-trioxo-spiro[11,20-dioxa-15-thia-1,14-diazatetracyclo[14.7.2.03,6.019,24]pentacosa-8,16(25),17,19(24)-tetraene-22,1′-tetralin]-7-yl]carbamate], which IC50 (H929 cells) is on record?
**A.** The IC50 was greater than 1000 nM.

**Q.** What about the Ki (MCL-1; class symbols) of the same molecule?
**A.** Its Ki is 1 to 100 nM.

**Q.** Which results are given for CC(C)C(=O)NS(=O)(=O)c1ccc2c(c1)N(CC1CCC1)CC1(CCCc3cc(Cl)ccc31)CO2 (stereo not shown) [Example 6, N-[6′-Chloro-5-(cyclobutylmethyl)spiro[2,4-dihydro-1,5-benzoxazepine-3,1′-tetralin]-7-yl]sulfonyl-2-methyl-propanamide]?
**A.** IC50 (H929 cells): > 1000 nM; Ki (MCL-1; numeric values): 35.7 nM

**Q.** Which IC50 (H929 cells) does the source give for C[C@@H]1NC(=O)COC[C@@H]2CC[C@H]2CN2C[C@@]3(CCCc4cc(Cl)ccc43)COc3ccc(cc32)S(=O)(=O)NC1=O [Example 197, (3R,6R,12S,22S)-6′-Chloro-12-methyl-15,15-dioxo-spiro[8,20-dioxa-15-thia-1,11,14-triazatetracyclo[14.7.2.0˜3,6.0˜19,24]pentacosa-16,18,24-triene-22,1′-tetralin]-10,13-dione] here?
**A.** The IC50 was greater than 1000 nM.

**Q.** And the Ki (MCL-1; class symbols)?
**A.** Its Ki is 1 to 100 nM.

**Q.** Which IC50 (H929 cells) does the source give for CN(C(=O)O[C@H]1/C=C/COC(C)(C)C(=O)NS(=O)(=O)c2ccc3c(c2)N(C[C@@H]2CC[C@H]21)C[C@@]1(CCOc2cc(Cl)ccc21)CO3)C1CCOCC1 [Example 304, [(3R,6R,7S,8E,22S)-7′-Chloro-12,12-dimethyl-13,15,15-trioxo-spiro[11,20-dioxa-15-thia-1,14-diazatetracyclo[14.7.2.03,6.019,24]pentacosa-8,16,18,24-tetraene-22,4′-chromane]-7-yl] N-methyl-N-tetrahydropyran-4-yl-carbamate] here?
**A.** The IC50 was less than 500 nM.

**Q.** What about the Ki (MCL-1; class symbols) of the same molecule?
**A.** The Ki was less than 1 nM.

**Q.** What does the source list for CN1C/C=C/[C@H](OC(=O)N[C@H]2CCOC2)[C@@H]2CC[C@H]2CN2C[C@@]3(CCCc4cc(Cl)ccc43)COc3ccc(cc32)S(=O)(=O)NC(=O)C1(C)C [Example 212, [(3R,6R,7S,8E,22S)-6′-Chloro-11,12,12-trimethyl-13,15,15-trioxo-spiro[20-oxa-15-thia-1,11,14-triazatetracyclo[14.7.2.03,6.019,24]pentacosa-8,16,18,24-tetraene-22,1′-tetralin]-7-yl] N-[(3S)-tetrahydrofuran-3-yl]carbamate]?
**A.** IC50 (H929 cells): < 500 nM; Ki (MCL-1; class symbols): < 1 nM

**Q.** How did the IC50 (H929 cells) turn out when CN([C@H]1/C=C/COC(C)(C)C(=O)NS(=O)(=O)c2ccc3c(c2)N(C[C@@H]2CC[C@H]21)C[C@@]1(CCCc2cc(Cl)ccc21)CO3)S(C)(=O)=O [Example 256, N-Methyl-N-[(3R,6R,7S,8E,22S)-6′-chloro-12,12-dimethyl-13,15,15-trioxo-spiro[11,20-dioxa-15-thia-1,14-diazatetracyclo[14.7.2.03,6.019,24]pentacosa-8,16(25),17,19(24)-tetraene-22,1′-tetralin]-7-yl]methanesulfonamide] was run?
**A.** The IC50 was greater than 1000 nM.

**Q.** And the Ki (MCL-1; class symbols)?
**A.** Its Ki is 1 to 100 nM.

**Q.** C[C@H]1C(=O)NS(=O)(=O)c2ccc3c(c2)N(C[C@@H]2CC[C@H]2[C@@H](OC(=O)N(C)C)/C=C/CN1C)C[C@@]1(CCCc2cc(Cl)ccc21)CO3 [Example 147, [(3R,6R,7S,8E,12S,22S)-6′-Chloro-11,12-dimethyl-13,15,15-trioxo-spiro[20-oxa-15-thia-1,11,14-triazatetracyclo[14.7.2.03,6.019,24]pentacosa-8,16,18,24-tetraene-22,1′-tetralin]-7-yl] N,N-dimethylcarbamate] was tested. Which IC50 (H929 cells) did it give?
**A.** Its IC50 is less than 500 nM.

**Q.** And the Ki (MCL-1; class symbols)?
**A.** The Ki was less than 1 nM.

**Q.** Which results are given for CN(C)CCN(C)C(=O)O[C@H]1/C=C/COC(C)(C)C(=O)NS(=O)(=O)c2ccc3c(c2)N(C[C@@H]2CC[C@H]21)C[C@@]1(CCCc2cc(Cl)ccc21)CO3 [Example 55, [(3R,6R,7S,8E,22S)-6′-Chloro-12,12-dimethyl-13,15,15-trioxo-spiro[11,20-dioxa-15-thia-1,14-diazatetracyclo[14.7.2.0˜3,6.0˜19,24]pentacosa-8,16,18,24-tetraene-22,1′-tetralin]-7-yl] N-[2-(dimethylamino)ethyl]-N-methyl-carbamate]?
**A.** IC50 (H929 cells): < 500 nM; Ki (MCL-1; class symbols): < 1 nM

**Q.** For CN(C)C[C@H]1CCCN1C(=O)O[C@H]1/C=C/COC(C)(C)C(=O)NS(=O)(=O)c2ccc3c(c2)N(C[C@@H]2CC[C@H]21)C[C@@]1(CCCc2cc(Cl)ccc21)CO3 [Example 169], which IC50 (H929 cells) is on record?
**A.** The IC50 was less than 500 nM.

**Q.** For CN(C)[C@@H]1CCN(C(=O)O[C@H]2/C=C/COC(C)(C)C(=O)NS(=O)(=O)c3ccc4c(c3)N(C[C@@H]3CC[C@H]32)C[C@@]2(CCOc3cc(Cl)ccc32)CO4)C1 [Example 310], which IC50 (H929 cells) is on record?
**A.** Its IC50 is less than 500 nM.

**Q.** Which IC50 (H929 cells) does the source give for CN(C)CCN(C)C(=O)O[C@H]1/C=C/COC(C)(C)C(=O)NS(=O)(=O)c2ccc3c(c2)N(C[C@@H]2CC[C@H]21)C[C@@]1(CCOc2cc(Cl)ccc21)CO3 [Example 307] here?
**A.** The IC50 was less than 500 nM.

**Q.** With CN1C/C=C/[C@H](OC(=O)NC2CC2)[C@@H]2CC[C@H]2CN2C[C@@]3(CCCc4cc(Cl)ccc43)COc3ccc(cc32)S(=O)(=O)NC(=O)C1(C)C [Example 206] as the molecule, how does the IC50 (H929 cells) read?
**A.** Its IC50 is less than 500 nM.

**Q.** For O=C(NS(=O)(=O)c1ccc2c(c1)N(CC1CCC1)C[C@@]1(CCCc3cc(Cl)ccc31)CO2)OCc1ccccc1 (stereo in doubt) [Example 14, Benzyl N-[6′-chloro-5-(cyclobutylmethyl)spiro[2,4-dihydro-1,5-benzoxazepine-3,1′-tetralin]-7-yl]sulfonylcarbamate], which Ki (MCL-1; numeric values) is on record?
**A.** The Ki was 222 nM.

**Q.** For CO[C@H]1/C=C/CN2CCC[C@H]2C(=O)NS(=O)(=O)c2ccc3c(c2)N(C[C@@H]2CC[C@H]21)C[C@@]1(CCCc2cc(Cl)ccc21)CO3 [Example 100], which IC50 (H929 cells) is on record?
**A.** Its IC50 is greater than 1000 nM.

**Q.** How did the IC50 (H929 cells) turn out when CO[C@@H]1/C=C/CN(C)C(=O)NS(=O)(=O)c2ccc3c(c2)N(C[C@@H]2CC[C@H]21)C[C@@]1(CCCc2cc(Cl)ccc21)CO3 [Example 108, (3R,6R,7R,8E,21S)-6′-Chloro-7-methoxy-11-methyl-14,14-dioxo-spiro[19-oxa-14-thia-1,11,13-triazatetracyclo[3.7.2.03,6.018,23]tetracosa-8,15,17,23-tetraene-21,1′-tetralin]-12-one] was run?
**A.** Its IC50 is greater than 1000 nM.

**Q.** CCOC(=O)N(C)[C@@H]1/C=C/COC(C)(C)C(=O)NS(=O)(=O)c2ccc3c(c2)N(C[C@@H]2CC[C@H]21)C[C@@]1(CCCc2cc(Cl)ccc21)CO3 [Example 252] was tested. Which IC50 (H929 cells) did it give?
**A.** Its IC50 is greater than 1000 nM.

**Q.** O=C(NS(=O)(=O)c1ccc2c(c1)N(CC1CCC1)CC1(CCCc3cc(Cl)ccc31)CO2)c1ccc(Cl)cc1 (stereo not shown) [Example 7, 4-Chloro-N-[6′-chloro-5-(cyclobutylmethyl)spiro[2,4-dihydro-1,5-benzoxazepine-3,1′-tetralin]-7-yl]sulfonyl-benzamide] was tested. Which Ki (MCL-1; numeric values) did it give?
**A.** Its Ki is 227 nM.

**Q.** How did the IC50 (H929 cells) turn out when CN(C)C1CN(C(=O)O[C@H]2/C=C/COC(C)(C)C(=O)NS(=O)(=O)c3ccc4c(c3)N(C[C@@H]3CC[C@H]32)C[C@@]2(CCOc3cc(Cl)ccc32)CO4)C1 [Example 311] was run?
**A.** The IC50 was less than 500 nM.

**Q.** CCO[C@@H]1CCN(C(=O)O[C@H]2/C=C/COC(C)(C)C(=O)NS(=O)(=O)c3ccc4c(c3)N(C[C@@H]3CC[C@H]32)C[C@@]2(CCOc3cc(Cl)ccc32)CO4)C1 [Example 308] was tested. Which IC50 (H929 cells) did it give?
**A.** The IC50 was less than 500 nM.

**Q.** How did the IC50 (H929 cells) turn out when COC1CN(C(=O)O[C@H]2/C=C/COC(C)(C)C(=O)NS(=O)(=O)c3ccc4c(c3)N(C[C@@H]3CC[C@H]32)C[C@@]2(CCOc3cc(Cl)ccc32)CO4)C1 [Example 309] was run?
**A.** The IC50 was less than 1000 nM.
